Results as given in patent publication US8835462B2, “Macrocyclic picolinamides as fungicides” (Dow AgroSciences LLC, priority 2012, dated 2014).

Legend:
Format in all cases: in vivo
[1] = tested on: Venturia inaequalis; assay: Apple scab (VENTIN) fungicidal activity; settings: 24 h, 1 Day Protectant, read-out: Disease Control VENTIN 1DP
Description: Technical grades of materials were dissolved in acetone, which were then mixed with nine volumes of water containing 110 ppm Triton X-100. The fungicide solutions were applied onto wheat seedlings using an automated booth sprayer to run-off. All sprayed plants were allowed to air dry prior to further handling. Wheat plants (variety Yuma) were grown from seed in a greenhouse in 50% mineral soil/50% soil-less Metro mix until the first leaf was fully emerged, with 7-10 seedlings per pot. These plants were inoculated with an aqueous spore suspension of Septoria tritici either prior to or after fungicide treatments. After inoculation the plants were kept in 100% relative humidity (one day in a dark dew chamber followed by two to three days in a lighted dew chamber at 20° C.) to permit spores to germinate and infect the leaf. The plants were then transferred to a greenhouse set at 20° C. for disease to develop. When disease symptoms were fully expressed on the 1st leaves of untreated plants, infection levels were assessed on a scale of 0 to 100 percent disease severity. Percent disease control was calculated using the ratio of disease severity on treated plants relative to untreated plants. Evaluation of Fungicidal Activity: Apple Scab (Venturia Inaequalis; Bayer Code […]) Apple seedlings (variety McIntosh) were grown in soil-less Metro mix, with one plant per pot. Seedlings with two expanding young leaves at the top (older leaves at bottom of the plants were trimmed) were used in the test. Plants were inoculated with a spore suspension of Venturia inaequalis 24 hr after fungicide treatment and kept in a 22° C. dew chamber with 100% RH for 48 hr, and then moved to a greenhouse set at 20° C. for disease to develop. Fungicide formulation, application and disease assessment on the sprayed leaves followed the procedures as described in the Example A.

[2] = tested on: Uncinula necator; assay: Grape powdery mildew (UNCINE) fungicidal activity; settings: Erysiphe necator, 24 h, 1 Day Protectant, read-out: Disease Control UNCINE 1DP
Description: Technical grades of materials were dissolved in acetone, which were then mixed with nine volumes of water containing 110 ppm Triton X-100. The fungicide solutions were applied onto wheat seedlings using an automated booth sprayer to run-off. All sprayed plants were allowed to air dry prior to further handling. Wheat plants (variety Yuma) were grown from seed in a greenhouse in 50% mineral soil/50% soil-less Metro mix until the first leaf was fully emerged, with 7-10 seedlings per pot. These plants were inoculated with an aqueous spore suspension of Septoria tritici either prior to or after fungicide treatments. After inoculation the plants were kept in 100% relative humidity (one day in a dark dew chamber followed by two to three days in a lighted dew chamber at 20° C.) to permit spores to germinate and infect the leaf. The plants were then transferred to a greenhouse set at 20° C. for disease to develop. When disease symptoms were fully expressed on the 1st leaves of untreated plants, infection levels were assessed on a scale of 0 to 100 percent disease severity. Percent disease control was calculated using the ratio of disease severity on treated plants relative to untreated plants. Evaluation of Fungicidal Activity: Grape Powdery Mildew (Uncinula Necator; Bayer Code […]) Grape seedlings (variety Carignane) were grown in soil-less Metro mix, with one plant per pot, and used in the test when approximately one month old. Plants were inoculated 24 hr after fungicide treatment by shaking spores from infected leaves over test plants. Plants were maintained in a greenhouse set at 20° C. until disease was fully developed. Fungicide formulation, application and disease assessment on the sprayed leaves followed the procedures as described in the Example A.

[3] = tested on: Blumeria graminis f. sp. tritici; assay: Wheat powdery mildew (ERYSGT) fungicidal activity; settings: 24 h, 1 Day Protectant, read-out: Disease Control ERYSGT 1DP
Description: Technical grades of materials were dissolved in acetone, which were then mixed with nine volumes of water containing 110 ppm Triton X-100. The fungicide solutions were applied onto wheat seedlings using an automated booth sprayer to run-off. All sprayed plants were allowed to air dry prior to further handling. Wheat plants (variety Yuma) were grown from seed in a greenhouse in 50% mineral soil/50% soil-less Metro mix until the first leaf was fully emerged, with 7-10 seedlings per pot. These plants were inoculated with an aqueous spore suspension of Septoria tritici either prior to or after fungicide treatments. After inoculation the plants were kept in 100% relative humidity (one day in a dark dew chamber followed by two to three days in a lighted dew chamber at 20° C.) to permit spores to germinate and infect the leaf. The plants were then transferred to a greenhouse set at 20° C. for disease to develop. When disease symptoms were fully expressed on the 1st leaves of untreated plants, infection levels were assessed on a scale of 0 to 100 percent disease severity. Percent disease control was calculated using the ratio of disease severity on treated plants relative to untreated plants. Evaluation of Fungicidal Activity: Wheat Powdery Mildew (Blumeria Graminis f. sp. Tritici; Synonym: Erysiphe graminis f. sp. Tritici; Bayer Code […]) Wheat plants (variety Yuma) were grown from seed in a greenhouse in 50% mineral soil/50% soil-less Metro mix until the first leaf was fully emerged, with 7-10 seedlings per pot. These plants were inoculated by dusting with infected stock plants 24 hr after fungicide treatments. After inoculation the plants were kept in a greenhouse set at 20° C. for disease to develop. Fungicide formulation, application and disease assessment on the sprayed leaves followed the procedures as described in the Example A.

[4] = tested on: Puccinia triticina; assay: Fungicide mobility (dropline mobility test), wheat brown rust (PUCCRT); settings: 1 ug/leaf, disease-free zone as percent of distance from marked line to leaf tip; for Dropline Mobility Test PUCCRT 1 DPM: 1 Day Protectant Mobility; for Dropline Mobility Test PUCCRT 3 DCM: 3 Day Curative Mobility
Summary of the method: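 Yuma wheat primary leaves, held horizontal, got a 2 μl drop of EC-formulated compound in water with 110 ppm Triton X-100 on a line 5 cm from the tip; 6 replicates. Inoculation 1 day after or 3 days before application. Acropetal disease-free zone measured as percent of line-to-tip distance once control rust fully expressed.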

Row | Structure (SMILES) | pest or weed control at 100 ppm [1] | pest or weed control at 100 ppm [2] | pest or weed control at 100 ppm [3] | Dropline Mobility Test PUCCRT 1 DPM [4] | Dropline Mobility Test PUCCRT 3 DCM [4]
1 | COc1ccnc(C(=O)N[C@H]2COC[C@H](Cc3ccccc3)[C@@H](OC)[C@H](C)OC2=O)c1OCOC(C)=O [Compound 39] | 0 to 80% | 0 to 80% | 0 to 80% | A (80-100) | A (80-100)
2 | COC(=O)/C=C/O[C@@H]1[C@@H](Cc2ccccc2)COC[C@H](NC(=O)c2nccc(OC)c2OCOC(C)=O)C(=O)O[C@H]1C [Compound 36] | 0 to 80% | 0 to 80% | 0 to 80% | B (More than 0-Less than 80) | B (More than 0-Less than 80)
3 | COc1ccnc(C(=O)N[C@H]2COC[C@H](Cc3ccccc3)[C@@H](OCC(C)C)[C@H](C)OC2=O)c1OC(C)=O [Compound 9, 2-(((3S,7S,8R,9S)-7-benzyl-8-isobutoxy-9-methyl-2-oxo-1,5-dioxonan-3-yl)carbamoyl)-4-methoxypyridin-3-yl acetate] | 80 to 100% | 80 to 100% | 80 to 100% | B (More than 0-Less than 80) | B (More than 0-Less than 80)
4 | COc1ccnc(C(=O)N[C@H]2COC[C@H](Cc3ccccc3)[C@@H](OCC(C)C)[C@H](C)OC2=O)c1OCOC(C)=O [Compound 8, (2-((3S,7S,8R,9S)-7-benzyl-8-isobutoxy-9-methyl-2-oxo-1,5-dioxonan-3-ylcarbamoyl)-4-methoxypyridin-3-yloxy)methyl acetate] | 80 to 100% | 80 to 100% | 80 to 100% | B (More than 0-Less than 80) | B (More than 0-Less than 80)
